Measurements: US9296741B2, “Bromodomain inhibitors” (priority 2012, dated 2016)

What was measured:
[1] = test system: breast cancer cell line MX-1; test: MX-1 cell line proliferation assay; assay type: cell-based, human; details: Homo sapiens, MX1, 72 h; MX-1 cells, 3-day proliferation, Cell Titer Glo; read-out: Cellular proliferation: EC50
[2] = biological target: human BRD4 first bromodomain (BDI_K57-E168) (Homo sapiens (Human), UniProt O60885); test: TR-FRET bromodomain binding assay, BRD4 first bromodomain
[3] = Mouse liver microsome stability assay; assay type: in vitro ADME; details: male, CD1, mouse, microsomes, pH 7.4
[4] = biological target: human BRD4 second bromodomain (BDII_E352-M457) (Homo sapiens (Human), UniProt O60885); test: TR-FRET bromodomain binding assay, BRD4 second bromodomain
[5] = Rat liver microsome stability assay; assay type: in vitro ADME; details: rat liver microsomes (male Sprague-Dawley), 0.5 μM test compound, pH 7.4, 37° C.; for half-life at 0.5 μM: 0.25 mg/mL microsomal protein, read-out: Stability in rat liver microsomes (t1/2 in minutes); for Stability in rat liver microsomes (t1/2 in minutes): […] microsomal protein
[6] = Human liver microsome stability assay; assay type: in vitro ADME; details: both sexes, human, microsomes, pH 7.4

SMILES | EC50 [1] | Ki [2] | half-life at 0.5 μM [3] | Ki [4] | half-life at 0.5 μM [5] | half-life at 0.5 μM [6] | Stability in rat liver microsomes (t1/2 in minutes) [5]
Cn1cc(-c2cc(C(=O)NCC3CCCO3)ccc2Oc2ccccc2)c2cc[nH]c2c1=O (stereo not drawn) [Example 14, 3-(6-methyl-7-oxo-6,7-dihydro-1H-pyrrolo[2,3-c]pyridin-4-yl)-4-phenoxy-N-(tetrahydrofuran-2-ylmethyl)benzamide] | 170 nM | 5.5 nM | 8 min | 12.3 nM | 6 min | 37 min | –
Cn1cc(-c2cc(S(C)(=O)=O)ccc2Oc2ccc(F)cc2F)c2cc(COc3ccccc3)[nH]c2c1=O [Example 292, 4-[2-(2,4-difluorophenoxy)-5-(methylsulfonyl)phenyl]-6-methyl-2-(phenoxymethyl)-1,6-dihydro-7H-pyrrolo[2,3-c]pyridin-7-one] | 366 nM | 53.2 nM | 12 min | 55.8 nM | 22 min | 8 min | –
Cn1cc(-c2cc(CS(=O)(=O)c3ccccc3)ccc2Oc2ccc(F)cc2F)c2cc[nH]c2c1=O [Example 306, 4-{2-(2,4-difluorophenoxy)-5-[(phenylsulfonyl)methyl]phenyl}-6-methyl-1,6-dihydro-7H-pyrrolo[2,3-c]pyridin-7-one] | 51.6 nM | 82.2 nM | 3 min | 63.9 nM | 9 min | 11 min | –
CN(C)C(=O)Cc1ccc(OCc2ccccc2)c(-c2cn(C)c(=O)c3[nH]ccc23)c1 [Example 47, 2-[4-(benzyloxy)-3-(6-methyl-7-oxo-6,7-dihydro-1H-pyrrolo[2,3-c]pyridin-4-yl)phenyl]-N,N-dimethylacetamide] | 1100 nM | 235 nM | 5 min | 205 nM | 3 min | 8 min | –
Cn1cc(-c2cc(S(C)(=O)=O)ccc2OC[C@@H]2CCC(=O)N2)c2cc[nH]c2c1=O [Example 228, 6-methyl-4-[5-(methylsulfonyl)-2-{[(2S)-5-oxopyrrolidin-2-yl]methoxy}phenyl]-1,6-dihydro-7H-pyrrolo[2,3-c]pyridin-7-one] | > 3000 nM | 39 nM | > 120 min | 108 nM | 107 min | > 120 min | –
Cn1cc(-c2cc(CNC(=O)CCC(=O)O)ccc2Oc2ccccc2)c2cc[nH]c2c1=O [Example 42, 4-{[3-(6-methyl-7-oxo-6,7-dihydro-1H-pyrrolo[2,3-c]pyridin-4-yl)-4-phenoxybenzyl]amino}-4-oxobutanoic acid] | > 3000 nM | 54.6 nM | > 120 min | 93.4 nM | > 120 min | > 120 min | –
COc1ccccc1Oc1ccc(S(C)(=O)=O)cc1-c1cn(C)c(=O)c2[nH]ccc12 [Example 178, 4-[2-(2-methoxyphenoxy)-5-(methylsulfonyl)phenyl]-6-methyl-1,6-dihydro-7H-pyrrolo[2,3-c]pyridin-7-one] | 36.2 nM | 10.5 nM | 10 min | 3.2 nM | 7 min | 27 min | –
CNS(=O)(=O)Nc1ccc(Oc2c(F)cc(F)cc2F)c(-c2cn(C)c(=O)c3[nH]ccc23)c1 [Example 98, N-methyl-N′-[3-(6-methyl-7-oxo-6,7-dihydro-1H-pyrrolo[2,3-c]pyridin-4-yl)-4-(2,4,6-trifluorophenoxy)phenyl]sulfuric diamide] | 52.9 nM | 6.5 nM | 10 min | 2.7 nM | 33 min | 26 min | –
Cn1cc(-c2cc(NS(C)(=O)=O)ccc2OC2CCCCC2)c2cc[nH]c2c1=O [Example 57, N-[4-(cyclohexyloxy)-3-(6-methyl-7-oxo-6,7-dihydro-1H-pyrrolo[2,3-c]pyridin-4-yl)phenyl]methanesulfonamide] | 13.8 nM | 0.88 nM | 5 min | 2 nM | 6 min | 13 min | –
Cn1cc(-c2cc(C(=O)O)ccc2Oc2ccccc2)c2cc[nH]c2c1=O [Example 10, 3-(6-methyl-7-oxo-6,7-dihydro-1H-pyrrolo[2,3-c]pyridin-4-yl)-4-phenoxybenzoic acid] | > 3000 nM | 15.4 nM | > 120 min | 8.6 nM | > 120 min | 78 min | –
CCS(=O)(=O)Nc1ccc(OC2CCOCC2)c(-c2cn(C)c(=O)c3[nH]ccc23)c1 [Example 109, N-[3-(6-methyl-7-oxo-6,7-dihydro-1H-pyrrolo[2,3-c]pyridin-4-yl)-4-(tetrahydro-2H-pyran-4-yloxy)phenyl]ethanesulfonamide] | 32 nM | 0.72 nM | > 120 min | 3.4 nM | 61 min | 71 min | –
Cn1nc(-c2ccccc2Oc2ccccc2)c2cc[nH]c2c1=O [Example 82, 6-methyl-4-(2-phenoxyphenyl)-1,6-dihydro-7H-pyrrolo[2,3-d]pyridazin-7-one] | 767 nM | 519 nM | 2 min | 183 nM | 2 min | 19 min | –
Cn1cc(-c2cc(C(=O)NCC(C)(C)O)ccc2Oc2ccc(F)cc2F)c2cc[nH]c2c1=O [Example 123, 4-(2,4-difluorophenoxy)-N-(2-hydroxy-2-methylpropyl)-3-(6-methyl-7-oxo-6,7-dihydro-1H-pyrrolo[2,3-c]pyridin-4-yl)benzamide] | 118 nM | 27.1 nM | 45 min | 36.1 nM | > 120 min | > 120 min | –

Continued, values first:

EC50 [1] | Ki [2] | half-life at 0.5 μM [3] | Ki [4] | half-life at 0.5 μM [5] | half-life at 0.5 μM [6] | Stability in rat liver microsomes (t1/2 in minutes) [5] | SMILES
16.9 nM | 1.7 nM | 5 min | 1.2 nM | 2 min | 34.9 min | – | Cn1cc(-c2cc(N3CCCS3(=O)=O)ccc2Oc2ccc(F)cc2F)c2cc[nH]c2c1=O [Example 43, 4-[2-(2,4-difluorophenoxy)-5-(1,1-dioxido-1,2-thiazolidin-2-yl)phenyl]-6-methyl-1,6-dihydro-7H-pyrrolo[2,3-c]pyridin-7-one]
24.4 nM | 2.6 nM | 9 min | 3.9 nM | – | 19 min | 1 min | CN(c1ccc(Oc2ccccc2)c(-c2cn(C)c(=O)c3[nH]ccc23)c1)S(C)(=O)=O [Example 8, N-methyl-N-[3-(6-methyl-7-oxo-6,7-dihydro-1H-pyrrolo[2,3-c]pyridin-4-yl)-4-phenoxyphenyl]methanesulfonamide]
50.9 nM | 15.8 nM | 3 min | 6.1 nM | 4 min | 5 min | – | Cn1cc(-c2cc(S(=O)(=O)Nc3ccccc3)ccc2OCC2CC2)c2cc[nH]c2c1=O [Example 313, 4-(cyclopropylmethoxy)-3-(6-methyl-7-oxo-6,7-dihydro-1H-pyrrolo[2,3-c]pyridin-4-yl)-N-phenylbenzenesulfonamide]
17.5 nM | 0.81 nM | 6 min | 1.2 nM | – | 2 min | 1 min | CCOC(=O)c1cc2c(-c3cc(NS(C)(=O)=O)ccc3Oc3ccccc3)cn(C)c(=O)c2[nH]1 [Example 71, ethyl 6-methyl-4-{5-[(methylsulfonyl)amino]-2-phenoxyphenyl}-7-oxo-6,7-dihydro-1H-pyrrolo[2,3-c]pyridine-2-carboxylate]
11.2 nM | 1.2 nM | 20 min | 4.3 nM | 12 min | 92 min | – | CCS(=O)(=O)Nc1ccc(OC2CCC(F)(F)CC2)c(-c2cn(C)c(=O)c3[nH]ccc23)c1 [Example 101, N-{4-[(4,4-difluorocyclohexyl)oxy]-3-(6-methyl-7-oxo-6,7-dihydro-1H-pyrrolo[2,3-c]pyridin-4-yl)phenyl}ethanesulfonamide]
> 3000 nM | 141 nM | > 120 min | 438 nM | > 120 min | 105 min | – | Cn1cc(-c2cc(S(C)(=O)=O)ccc2OC[C@H]2CCC(=O)N2)c2cc[nH]c2c1=O [Example 226, 6-methyl-4-[5-(methylsulfonyl)-2-{[(2R)-5-oxopyrrolidin-2-yl]methoxy}phenyl]-1,6-dihydro-7H-pyrrolo[2,3-c]pyridin-7-one]
110 nM | 327 nM | 2 min | 25.7 nM | 2 min | 1 min | – | Cn1cc(-c2cc(S(=O)(=O)N3CCc4ccccc43)ccc2OCC2CC2)c2cc[nH]c2c1=O [Example 305, 4-[2-(cyclopropylmethoxy)-5-(2,3-dihydro-1H-indol-1-ylsulfonyl)phenyl]-6-methyl-1,6-dihydro-7H-pyrrolo[2,3-c]pyridin-7-one]
535 nM | 705 nM | 6 min | 101 nM | 13 min | 7 min | – | CCS(=O)(=O)N(CCN(C)C)c1ccc(Oc2ccc(F)cc2F)c(-c2cn(C)c(=O)c3[nH]ccc23)c1 [Example 296, N-[4-(2,4-difluorophenoxy)-3-(6-methyl-7-oxo-6,7-dihydro-1H-pyrrolo[2,3-c]pyridin-4-yl)phenyl]-N-[2-(dimethylamino)ethyl]ethanesulfonamide]
